US20150031128A1, “CULTURE MEDIUM FOR EUKARYOTIC CELLS” (Friesland Brands B.V., priority 2012, published 2015)
Peptide text beside a SMILES is read from it.

Key:
[1] = system: IgG expressing CHO cell line (CHO-2: ATCC CRL 11397, producing IgG4); assay: Cell growth (area under growth curve) of CHO cells in supplemented chemically defined medium; assay type: cell-based, Chinese hamster; conditions: dimensionless AUC
Experimental: (§1) The cell culture assay was carried out in commercially available IS CHO-CD medium (Irvine Scientific, Cat. No. 91119). To this media, L-Glutamine (2 mM), pluronic acid, hypoxanthine (100 μM) and thymidine (15 μM) were added. Penicillin and streptomycin were added to prevent any bacterial growth during the growth assay. The media was supplemented with sodium-L-lactate, methyl-L-3-phenyl lactate, mucic acid, D-chiro-inositol, ferulic acid, syringic acid, adenine (A2786) and trigonelline, all purchased from Sigma Aldrich, Germany, in varying concentrations (see Table 2). The supplemented medium was mixed with a vortex mixture, filtered using a 0.22 μm filter and subsequently used in a growth assay.
(§2) An IgG expressing CHO cell line was used (CHO-2: ATCC CRL 11397, producing IgG4). The cell lines were grown in the adherent conditions for a few passages and once confluent, they were transferred to animal-free conditions in the supplemented media described in Example 2.
(§3) To measure growth and production curves, Chinese hamster ovary (CHO) cells were grown in suspension culture in baffled flasks. 20×10^6 cells were transferred in 25 ml media to the baffled flasks. Chemically defined media with and without added cell culture medium components were tested. No fresh media was added during the growth assay. Cells were counted using the CEDEX HiRes cell counter (Innovatis, Germany). The cell counts were used to calculate the area under the growth curve and represented as dimensionless area under curve (AUC) values as described in detail in Ling, C. X, Huang, J. and Zhang, H. (2003), International joint conferences on artificial intelligence, pp. 329-341. The supernatant samples were taken every alternate days for the IgG production measurements. IgG production was measured using sandwich ELISA method. The specific IgG production was calculated by taking the ratio of cumulative IgG production (in mg/ml) and AUC measured at day 11 of the growth assay. The cells were visually inspected using a phase contrast microscope (Zeiss Axiovert 25, 400× magnification). […] Only single cells were observed and no aggregation of cells was seen. The cell shape was also positively affected. […] This was in contrast with the observation that a lot of cell aggregates were present in CHO cell cultures grown in chemically defined medium without cell culture medium components.
(§4) Table 2A and 2B. Specific IgG production and cell growth of CHO cells in chemically defined cell culture medium (see Example 5 for details) with added cell culture medium components of the invention in varying concentrations. Production and growth data in chemically defined cell culture medium without added alpha-hydroxy acid derivatives, as well as in chemically defined cell culture medium supplemented with soy protein hydrolysate (0.4% w/v) and with fetal calf serum (Gibco-Invitrogen; 5% v/v) are provided for comparison.

[2] = system: IgG expressing CHO cell line (CHO-2: ATCC CRL 11397, producing IgG4); assay: Specific IgG production of IgG expressing CHO cells in supplemented chemically defined medium (sandwich ELISA / AUC); assay type: cell-based, Chinese hamster; conditions: ratio of cumulative IgG production (mg/ml) and AUC at day 11
Experimental: as §1, §2, §3, §4

[3] = system: antibody production in cell culture; assay: Correlation (linear regression, SLOPE) of antibody production with relative concentration of components in plant protein hydrolysates; assay type: cell-based; conditions: linear regression over plant protein hydrolysates; higher positive slope = higher importance
Experimental: Commercial plant protein hydrolysates like SE50MAF-UF, WGE80M-UF, CNE80M-UF, PCE80B obtained from FrieslandCampina Domo, USA were analysed by Liquid chromatography/Mass Spectrometry (LC/MS, LC/MS2) using a Waters Acquity UPLC and a Thermo-Finnigan LTQ mass spectrometer, which consists of an electrospray ionization (ESI) source and linear ion-trap (LIT) mass analyzer. The sample extract was split into two aliquots, dried, then reconstituted in acidic or basic LC-compatible solvents. One aliquot was analyzed using acidic positive ion optimized conditions and the other using basic negative ion optimized conditions in two independent injections using separate dedicated columns. […] Using the SLOPE function of Microsoft Excel 2003, the correlation between antibody production and relative concentration of the components was calculated, the results of which are presented in Table 1 below. The higher the positive slope, the higher the importance of a biochemical component in the cell culture. p-values, also calculated using MS Excel's correlation regression function, represent the significance of the values, with the lower the p-value (all between 0 and 1), the more significant the measured value.

[4] = component added at 1 × 10^−1 % w/v
[5] = component added at 1 × 10^−2 % w/v
[6] = component added at 1 × 10^−3 % w/v

SMILES	Cell growth (area under curve) after 14 days [1, 4]	Cell growth (area under curve) after 14 days [1, 5]	Cell growth (area under curve) after 14 days [1, 6]	Specific IgG production after 11 days [2, 4]	Specific IgG production after 11 days [2, 5]	Specific IgG production after 11 days [2, 6]	SLOPE (correlation of antibody production and relative concentration of cell culture medium component) [3]
OC1C(O)C(O)C(O)C(O)C1O [D-Chiro-inositol, D-chiro-inositol]	64.24	51.22	50.18	60.22	93.05	102.40	
C[C@H](O)C(=O)[O-].[Na+] [Sodium-L-lactate, sodium-L-lactate]	61.83			93.77			
COc1cc(C(=O)O)cc(OC)c1O [Syringic Acid, 4-hydroxy-3,5-dimethoxybenzoic acid]	60.0	58.8	53.4	96.8	93.2	77.3	
Nc1ncnc2nc[nH]c12 [adenine]					100.8	82.4	
O=C(O)CC[C@@H]1NC(=O)CNC1=O [cyclo(Gly-Glu)]							1584.22
COc1cc(/C=C/C(=O)O)ccc1O [ferulic acid, (E)-3-(4-hydroxy-3-methoxy-phenyl)prop-2-enoic acid]	66.3	51.3	49.7	60.5	86.3	124.2	
C[n+]1cccc(C(=O)[O-])c1 [trigonelline, 1-methylpyridinium-3-carboxylate]				83.65	75.68		
CC(C)[C@H](N)C(=O)N[C@@H](CCC(=O)O)C(=O)O [valinylglutamate] (H-Val-Glu-OH)							2064.16
